These results are taken from ChEMBL document CHEMBL2321772 (J Med Chem, 2013).

The nature of one data set: physchem. The note with it: octanol/water.
Data set [1] in a line: Oral bioavailability in dog. Type of data set: ADME, organism-based, Canis lupus familiaris. The note with it: in vivo.
Data set [2] is described as follows: Oral bioavailability in rat. Type of data set: ADME, organism-based. The settings on record: in vivo.
Data set [3] in a line: Oral bioavailability in mouse. Type of data set: ADME, organism-based. The note with it: in vivo.
Data set [4] in a line: Half life in dog. Type of data set: ADME, organism-based, Canis lupus familiaris. The note with it: in vivo.
A short description of data set [5]: Half life in rat. Type of data set: ADME, organism-based. The note with it: in vivo.
The nature of data set [6]: Half life in mouse. Type of data set: ADME, organism-based. The note with it: in vivo.
A short description of data set [7]: Volume of distribution at steady state in dog. Type of data set: ADME, organism-based, Canis lupus familiaris. The note with it: in vivo, read-out: Vdss.
Data set [8] can be described thus: Clearance in rat. Type of data set: ADME, organism-based. The settings on record: in vivo.
Data set [9] is described as follows: Clearance in mouse. Type of data set: ADME, organism-based. The settings on record: in vivo.
Data set [10] can be described thus: Intrinsic clearance in dog hepatocytes assessed per million of cells. The settings on record: read-out: CLH. Type of data set: ADME, cell-based, Canis lupus familiaris, Hepatocyte.
Data set [11] is described as follows: Intrinsic clearance in rat hepatocytes assessed per million of cells. The settings on record: read-out: CLH. Type of data set: ADME, cell-based, Hepatocyte.
Data set [12] is described as follows: Intrinsic clearance in mouse hepatocytes assessed per million of cells. Type of data set: ADME, cell-based, Hepatocyte. The note with it: read-out: CLH.
The next data set in a line: in vitro. The note with it: human, hepatocytes.

Consider `C[C@@H](NC(=O)C1(N)CCN(c2ncnc3[nH]ccc23)CC1)c1ccc(Cl)cc1`, for which the logD in “physchem” is 3.3. The same measure, in the same setting: the same measure for `C[C@H](NC(=O)C1(N)CCN(c2ncnc3[nH]ccc23)CC1)c1ccc(Cl)cc1`: 2.7. With `NC1(C(=O)NCc2ccc(Cl)cc2)CCN(c2ncnc3[nH]ccc23)CC1`, the bioavailability in data set [1] came out at 70%; in [2], 56%; in data set [3] it was 88%. The half-life in data set [4] was 3 h; in [5], 2.3 h; in data set [6], 0.8 h. Besides, the Vd in [7] came out at 0.6 L/kg. Further, the figures for the clearance in data set [8] and in data set [9] were 48 mL/min/kg and 42 mL/min/kg, respectively. In addition, the hepatocyte CLint in [10] turned out to be 6 µL/min/1e6 cells; in data set [11], 19 µL/min/1e6 cells; in data set [12] it was 10 µL/min/1e6 cells; in the data set “in vitro” it was 15 µL/min/1e6 cells. For `NC1(C(=O)N[C@@H](CCN2CCCCC2)c2ccc(Cl)cc2)CCN(c2ncnc3[nH]ccc23)CC1` (racemic), the logD in the data set “physchem” was found to be 2.4.

As for `NC(=O)C(NC(=O)C1(N)CCN(c2ncnc3[nH]ccc23)CC1)c1ccc(Cl)cc1` (racemic), the logD in the data set “physchem” stood at 2.2. On the same count and under the same terms, the same measure for `CN(C)C(=O)CC(NC(=O)C1(N)CCN(c2ncnc3[nH]ccc23)CC1)c1ccc(Cl)cc1` (racemic): 2.4; for `CC(=O)NCC(NC(=O)C1(N)CCN(c2ncnc3[nH]ccc23)CC1)c1ccc(Cl)cc1` (racemic): 2.4. Same read-out and setting: the same measure for `NC1(C(=O)NC(CS(N)(=O)=O)c2ccc(Cl)cc2)CCN(c2ncnc3[nH]ccc23)CC1` (racemic): 2.2; for `CS(=O)(=O)NCC(NC(=O)C1(N)CCN(c2ncnc3[nH]ccc23)CC1)c1ccc(Cl)cc1` (racemic): 2.1; for `CS(=O)(=O)NCCC(NC(=O)C1(N)CCN(c2ncnc3[nH]ccc23)CC1)c1ccc(Cl)cc1` (racemic): 2.2.

`NC1(C(=O)NC(CO)c2ccc(Cl)cc2)CCN(c2ncnc3[nH]ccc23)CC1` (racemic): in the data set “physchem”, the logD is 2.4. Compound `NC1(C(=O)NC(CCCO)c2ccc(Cl)cc2)CCN(c2ncnc3[nH]ccc23)CC1` (racemic) came in with a logD in the data set “physchem” of 2.8. The same measure, in the same setting: the same measure for `COCCC(NC(=O)C1(N)CCN(c2ncnc3[nH]ccc23)CC1)c1ccc(Cl)cc1` (racemic): 3; for `CCC(NC(=O)C1(N)CCN(c2ncnc3[nH]ccc23)CC1)c1ccc(Cl)cc1` (racemic): 3.5. Compound `NC1(C(=O)NC(c2ccc(Cl)cc2)C2CC2)CCN(c2ncnc3[nH]ccc23)CC1` (racemic) gave a logD in the data set “physchem” of 3.4. The compound `NC1(C(=O)NC(c2ccccc2)c2ccc(Cl)cc2)CCN(c2ncnc3[nH]ccc23)CC1` (racemic) displayed a logD in the data set “physchem” of 4.1. Same read-out and setting: the same measure for `CC(NC(=O)C1(N)CCN(c2ncnc3[nH]ccc23)CC1)c1ccccc1` (racemic): 2.2. Still for that read-out and setting: the same measure for `CC(NC(=O)C1(N)CCN(c2ncnc3[nH]ccc23)CC1)c1ccc(F)cc1` (racemic): 2.4. With `CC(NC(=O)C1(N)CCN(c2ncnc3[nH]ccc23)CC1)c1ccccn1` (racemic), in the data set “physchem”, the logD amounted to 1.3. Still for that read-out and setting: under `CC(NC(=O)C1(N)CCN(c2ncnc3[nH]ccc23)CC1)c1ccc(S(C)(=O)=O)cc1` (racemic) stands 1. On the same count and under the same terms, the same measure for `COc1ccc(C(C)NC(=O)C2(N)CCN(c3ncnc4[nH]ccc34)CC2)cc1OC` (racemic): 1.8. For the compound `CN(C)CCCC(NC(=O)C1(N)CCN(c2ncnc3[nH]ccc23)CC1)c1ccc(Cl)cc1` (racemic), the logD in “physchem” amounted to 1.4. Same read-out and setting: the same measure for `NC1(C(=O)NC(CCCN2CCCC2)c2ccc(Cl)cc2)CCN(c2ncnc3[nH]ccc23)CC1` (racemic): 1.3. In turn, `NC1(C(=O)NC(CCCN2CCOCC2)c2ccc(Cl)cc2)CCN(c2ncnc3[nH]ccc23)CC1` (racemic) showed a logD in the data set “physchem” of 2.7. The same measure, in the same setting: the same measure for `CC(NC(=O)C1(N)CCN(c2ncnc3[nH]ccc23)CC1)c1ccc(Cl)cc1` (racemic): 2.7.

Usually logD stands for lipophilicity at a set pH, counting ionised and neutral species. A lower logD goes with lower lipophilicity. The term bioavailability denotes dose-corrected exposure relative to a reference, in per cent. Low values mean little systemic uptake, high ones much systemic uptake. One may read the half-life as how long it takes for the measured level to halve. A high value points to slow loss. The clearance is the rate of elimination divided by the concentration.
